Results on five compounds are retold here after patent US20130045162A1, “DELIVERY SYSTEM FOR SPECIFICALLY TARGETING CANCER CELLS AND METHOD OF USE THEREOF” (MOREHOUSE SCHOOL OF MEDICINE, priority 2011, published 2013).

The target in series [1] is FR1 (Homo sapiens, UniProt P15328). To be noted: read-out: affinity for FR1; cited from earlier work.
The target in series [2] is FR2 (Homo sapiens, UniProt P14207). Conditions: read-out: affinity for FR2; cited from earlier work.
Series [3] has as its system PCa cells (PC3 and PTEN-CaP2). The series is described as follows: PCa cell death / apoptosis in vitro. Conditions: 20 μM. The series is classed as cell-based, human; mouse.
Series [4] has as its system DU145 (prostate cancer cell line). The series is described as follows: DU145 apoptosis, ImageStream (TUNEL/DRAQ5). The series is classed as cell-based. To be noted: 20 uM, 1 hour, wash, 48 hours. How it is done:
(§1) DU145 (prostate cancer cell line) and PrEC (primary prostatic epithelial cells) cells were treated with cisplatin solution or cisplatin-containing and cancer cell-binding peptides (I, II, III, and IV)- or folate-conjugated polycaprolactone-coated PBM nanoparticles, or uncoated nanoparticles. […] Apoptotic cells were identified using two standard image based features from the IDEAS package: Area and Spot Small Total. Condensed apoptotic nuclei have lower nuclear area value as compared to live cells.

Series [5] deals with MDA-MB-231-Luc xenografts. In words: tumor regression in MDA-MB-231-luc tumor-bearing mice. Conditions: 8 mg/kg/week, intravenous injection. The series is classed as in vivo.
Details of series [6]: species or system mice. Conditions: mouse, in vivo.
Procedure: Serum is collected at sacrifice and urea N2, creatine, P, Ca, Na, K, Cl, bicarbonate, alkaline phosphatase, alanine transaminase (ALT), aspartate aminotransferase (AST), creatine kinase (CK), cholesterol, total bilirubin, total protein, albumin, globulin, albumin/globulin ratio, glucose and amylase are measured.
Series [7] concerns PrEC (primary prostatic epithelial cells). The series is described as follows: PrEC apoptosis, ImageStream (TUNEL/DRAQ5). The format is cell-based. To be noted: 20 uM, 1 hour, wash, 48 hours. As to the method: as §1
Series [8] relates to BrCa cells (MCF-7, MDA-MB-231, and 4T1). In words: BrCa cell death / apoptosis in culture. Conditions: 20 μM, after 24 hr of culture. The series is classed as cell-based. An excerpt: (§2) The folate coated PBM nanoparticles are further loaded with docetaxel, carboplatin, or cisplatin. […] However, PBM nanoparticles containing 10× less chemotherapeutic agent were taken up and induced the same level of BrCa cell apoptosis as cisplatin, docetaxel, or carboplatin solution, respectively, but not primary breast epithelial cells. […] Accordingly, the novel PBM nanoparticles of the present application enhance BrCa therapy efficacy, reduce toxicities, and increase breast tumor immunity.

For series [9], the system named is PC3-luc tumor. The series is described as follows: tumor regression in PC3-luc tumor-bearing mice. Conditions: 8 mg/kg/week, intravenous injection. The series is classed as in vivo.
The test system of series [10] is normal prostatic epithelial cells (PrEC and RWPE-1). The series is described as follows: normal prostatic epithelial cell death in vitro. The series is classed as cell-based. Conditions: 20 μM.
The subject of series [11] is normal (primary) breast epithelial cells. The series is described as follows: normal breast epithelial cell death / apoptosis in culture. The series is classed as cell-based. Conditions: 20 μM, after 24 hr of culture.
Text: as §2

For series [12] the following is noted: cited from earlier work.
Series [13] deals with PC3-luc and PTEN-CaP2-luc tumor. The series is described as follows: Example 5 intratibia PC3-luc / PTEN-CaP2-luc tumor model. The format is in vivo, mice. To be noted: intravenous. As to the method: To mimic advanced (bone metastasis) PCa, NIH-III or B6 male mice receiving vitamin D-deficient or normal diets are injected in left tibia with PC3-luc or PTEN-CaP2-luc cells, respectively. […] Microscopic and morphometric analysis determine the significance of treatments on prostate tumor apoptosis and change in the frequency or survival of PCa cells. […] Blood samples are used to determine serum docetaxel and oxaliplatin PK/PD by mass spectrometry.
NIH-III and B6 male mice are purchased from Jackson Laboratories. Animals are housed and maintained in microbial isolator cages under conventional housing conditions at the Morehouse School of Medicine's animal facility. The guidelines proposed by the committee for the Care of Laboratory Animal Resources Commission of Life Sciences—National Research Council are followed to minimize animal pain and distress. Eight to ten week old mice are injected in the right tibia with 10^6 PTEN-P2-luc (matched benign), PTEN-CaP2-luc (prostate adenocarcinoma), or PC3-luc cells. To assess the affects of hormone ablation on cytotoxic drug or PBM nanoparticle susceptibility, another group of mice is castrated after prostate tumor detection.

Series [14] concerns PTEN-CaP2-luc tumor. The series is described as follows: Example 7 PTEN-CaP2-luc tumor in B6 and B6.Xpc−/− mice. The format is in vivo.
Procedure: (§3) To mimic advanced (bone metastasis) PCa in ERCC1 variant individuals, B6 and B6.Xpc^−/− mice are injected in left tibia PTEN-CaP2-luc cells. Tumor progression is followed non-invasively in non-castrated mice using our Caliper/Xenogen IVIS-100 imaging system. After tumors emit luminescence >10^5 photons/sec/cm^2, one set of mice is castrated (i.e., to mimic androgen ablation) and the second set is not. […] Mice are imaged every week to monitor tumor progression/regression. When tumors in negative control (saline vehicle treated only) exceed 10^8 photons/sec/cm^2, groups in each set are sacrificed. […] The number and activity of peripheral, lymph node and tumor-associated lymphocytes are isolated and CD4^+ T cells affinity purified and intracellularly and surface stained for flow cytometry analysis of Th1, Th2, Th17, and cell frequency as before. Specifically, the proliferation of purified T lymphocytes after CD3 plus CD28 stimulation with or without FR4 to access Th1/Th2 cell proliferation as before. Along with weekly bioluminescence imaging, blood chemistry and peripherial blood leukocyte subpopulations are monitored to evaluate tumor- or drug-associated toxicities that may be associated with Xpc deficiency.
For series [15] the following is noted: mouse, in vivo.
Procedure: as §3
In series [16] the test system is spontaneous PCa in PBcre4+cPten−/− luc+ and PBcre4+cPten−/− luc+ cav1+ mice. In words: Example 6 spontaneous prostate tumor model (cPten−/− luc mice). The format is in vivo. To be noted: for metastatic lesions: alone or encapsulated. An excerpt:
PBM nanoparticle effects on spontaneous tumor and Treg cell development are examined using cPten^−/−PBcre4^+luc^+ or cPten^−/−PBcre4^+luc^+cav1^+ (castrated or noncastrated) mice. Pten^floxed/floxedluc^+ without the Cre gene, which serve as negative tumor controls, and male cPten^−/− PBcre4^+luc^+ or cPten^−/−PBcre4^+luc^+cav1^+ (castrated or noncastrated) mice are imaged every week during PCa development from murine PIN (6 weeks of age), invasive adenocarcinoma (>9 weeks of age), and metastatic lymph node, lung and possibly bone at 12 weeks of age. After 9 weeks of age, tumors are allowed to progress to a net increase of 10^5 photons/sec/cm^2 from luminescence detected in mice <9 weeks of age. A set of mice is castrated to study androgen-independent hormone refractory PCa and another set is not castrated to further study the progression of PTEN-mediated PCa with androgens. […] Microscopic and morphometric analysis determine the significance of treatments on prostate tumor apoptosis and change in the frequency or survival of secretory luminal, basal, neuroendocrine and proliferating PCa cells. […] The proliferation of purified T lymphocytes is measured after CD3 plus CD28 stimulation (i.e., incubation on antibody-coated plates) with or without FR4 to assess Th1/Th2 cell proliferation. […]
Despite being homozygous for Pten gene deletion, the individual PBcre4^+ cPten^−/− luc^+ and PBcre4^+ cPten^−/− luc^+ cav1^+ mice will have different copies of active luciferase (L) gene. The copy number of trans L genes are determined and confirmed by multiplex polymerase chain reaction amplification and Southern blot analysis to insure the number of L genes responsible for luciferase will not change from experiment to experiment. […]

Series [17] can be described thus: Example 7 systemic toxicities in B6 and B6.Xpc−/− mice. Conditions: B6.Xpc−/− mice compared to B6 mice.
Procedure: as §3
Setting [18] is: optimal dose 10 mg/kg/week, both B6 and B6.Xpc−/− mice.

Where two headings read alike, the source gives them in different places. A value given as a limit tells only on which side of the number the result lay.

FR1, sequence (P15328 25-234): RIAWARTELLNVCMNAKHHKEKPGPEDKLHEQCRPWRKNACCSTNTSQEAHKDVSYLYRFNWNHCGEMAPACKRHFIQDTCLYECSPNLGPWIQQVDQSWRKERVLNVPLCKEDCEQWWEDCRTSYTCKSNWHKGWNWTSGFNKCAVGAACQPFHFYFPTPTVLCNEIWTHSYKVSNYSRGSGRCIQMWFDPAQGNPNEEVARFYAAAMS
FR2, sequence (P14207 17-230): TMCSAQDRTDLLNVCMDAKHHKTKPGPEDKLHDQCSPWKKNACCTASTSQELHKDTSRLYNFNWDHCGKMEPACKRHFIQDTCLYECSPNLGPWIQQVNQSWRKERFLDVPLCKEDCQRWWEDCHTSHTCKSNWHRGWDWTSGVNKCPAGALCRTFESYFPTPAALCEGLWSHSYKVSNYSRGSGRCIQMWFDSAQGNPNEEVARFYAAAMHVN

Regarding `CN1c2c(nc(N)[nH]c2=O)NC[C@@H]1CNc1ccc(C(=O)N[C@@H](CCC(=O)O)C(=O)O)cc1` [6S 5-methyltetrahydrofolate], the values for the Kd in series [1] and in series [2] were 55 nM and 1 nM, respectively.

In series [3], `[NH2][Pt]([NH2])([Cl])[Cl]` [Cisplatin solution, cisplatin] showed a cell death of more than 90%. Further, the “apoptosis of DU145 cells” value in [4] was “apoptosis of both DU145 and PrEC cells”. In addition, the tumor regression entry in series [5] is on record as “significant (and similar) tumor regression”. Besides, in [6], the Albumin is 4.2 ± 0.6 g/dL, the Albumin/Globulin ratio was 4.22 ± 2.41, the “Alk Phos” value is 160 ± 34.64 U/L and the Amylase came out at 2062 ± 371.44 U/L. Besides, in series [6], the Bicarbonate was found to be 10.2 ± 1.04 mmol/fL, the CK is on record as 3975 ± 45 U/L, the Calcium came to 1.2 ± 0 mg/dL and the Cholestrol was 84 ± 10.39 mg/dL. In [6], this compound yielded a Cl of 106 ± 3.46 mEq/l, a Creatinin of 0.8 ± 0.35 mg/dL, a Globulins of 1.2 ± 0.6 g/dL and a Glucose of 52 ± 17.32 mg/dL. Also, in [6], the K is listed as 9.2 ± 012 mEg/l, the Na was found to be 152 ± 3.46 mEq/l, the Phosphorus worked out at 72 ± 0 mg/dL and the “Total Bilirubin” value stood at 0.6 ± 0 mg/dL. In addition, in series [6], the Total protein came to 5 ± 0.35 g/dL and the “Urea N2” value was found to be 36 ± 0 mg/dL. Moreover, the “apoptosis of PrEC cells” value in [7] was “apoptosis of both DU145 and PrEC cells”. This compound came in with a cell death in series [8] of more than 90%. In series [9], the tumor regression entry is “significant (and similar) tumor regression”. The compound also returned a cell death in series [10] of more than 90%. Further, the cell death in [11] is more than 90%.

For `COc1cc(/C=C/C(=O)CC(=O)/C=C/c2ccc(O)c(OC)c2)ccc1O` [Free curcumin, diferuloylmethane], in series [12], the solubility in water entry was “completely insoluble in water”.

Consider `CC(=O)O[C@@]12CO[C@@H]1C[C@H](O)[C@@]1(C)C(=O)[C@H](O)C3=C(C)[C@@H](OC(=O)[C@H](O)[C@@H](NC(=O)OC(C)(C)C)c4ccccc4)C[C@@](O)([C@@H](OC(=O)c4ccccc4)[C@H]21)C3(C)C` [docetaxel], for which the tumor regression result was “tumor regression” in series [13] (optimal dose 10 mg/kg/week), “not suboptimal” in series [13] (suboptimal dose 0.1 mg/kg/week), “tumor regression” in series [14] (setting [18]) and “not suboptimal” in series [14] (suboptimal dose 0.1 mg/kg/week). Moreover, in series [15], the “toxicities (elevated AST & ALT, hypocalcemia and hypoglycemia)” value was “significantly higher toxicities”. For the same compound, the metastatic lesions result in series [16] is listed as “fewer metastatic lesions”.

Turning to `O=C1[O][Pt]2([NH][C@@H]3CCCC[C@H]3[NH]2)[O]C1=O` [oxaliplatin], the tumor regression entry in series [13] (optimal dose 10 mg/kg/week) is listed as “tumor regression”; in [13] (suboptimal dose 0.1 mg/kg/week) it was “not suboptimal”; in [14] (setting [18]), “tumor regression”; in series [14] (suboptimal dose 0.1 mg/kg/week), “not suboptimal”. The metastatic lesions result in [16] was “fewer metastatic lesions”. Besides, in series [16] (mouse, in vivo), the neuroendocrine differentiation result is listed as “reduced”. In addition, the “toxicities (elevated AST & ALT, hypocalcemia and hypoglycemia)” value in [17] is listed as “significantly higher toxicities”.
